Source: ChEMBL document CHEMBL5385848, “Discovery of novel hydroxyamidine based indoleamine 2,3-dioxygenase 1 (IDO1) and thioredoxin reductase 1 (TrxR1) dual inhibitors” (Eur J Med Chem, 2023)
Calls of active or inactive are those of the source. The rule behind the calls is not given here.

Legend:
[1] = molecular target: T1, Thioredoxin reductase 1, cytoplasmic (Rattus norvegicus, UniProt O89049); assay: Inhibition of recombinant rat TrxR1 incubated for 1 hr in presence of NADPH by microplate reader analysis
T1 sequence (O89049 whole entry): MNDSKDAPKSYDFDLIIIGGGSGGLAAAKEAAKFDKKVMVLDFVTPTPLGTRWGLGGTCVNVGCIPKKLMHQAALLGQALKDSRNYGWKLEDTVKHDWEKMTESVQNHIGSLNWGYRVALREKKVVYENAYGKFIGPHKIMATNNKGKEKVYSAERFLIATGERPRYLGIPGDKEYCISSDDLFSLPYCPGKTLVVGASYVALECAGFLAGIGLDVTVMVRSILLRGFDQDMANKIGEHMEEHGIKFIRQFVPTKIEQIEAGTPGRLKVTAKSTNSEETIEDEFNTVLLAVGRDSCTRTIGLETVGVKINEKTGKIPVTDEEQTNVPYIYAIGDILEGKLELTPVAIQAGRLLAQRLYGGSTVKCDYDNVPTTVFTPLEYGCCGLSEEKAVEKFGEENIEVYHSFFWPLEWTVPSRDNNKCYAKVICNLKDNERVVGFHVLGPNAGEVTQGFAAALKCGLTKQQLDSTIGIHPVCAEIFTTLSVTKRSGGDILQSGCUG

HCT-116 = assay: Antiproliferative activity against human HCT-116 cells assessed as cell growth inhibition incubated for 48 hrs by CCK-8 assay; format: functional, cell-based; conditions: HCT-116, 48 h
[2] = molecular target: Indoleamine 2,3-dioxygenase 1 (Homo sapiens, UniProt P14902); assay: Inhibition of recombinant human IDO1 using L-Trp as substrate incubated for 1 hr
Chain of Indoleamine 2,3-dioxygenase 1 (P14902 whole entry): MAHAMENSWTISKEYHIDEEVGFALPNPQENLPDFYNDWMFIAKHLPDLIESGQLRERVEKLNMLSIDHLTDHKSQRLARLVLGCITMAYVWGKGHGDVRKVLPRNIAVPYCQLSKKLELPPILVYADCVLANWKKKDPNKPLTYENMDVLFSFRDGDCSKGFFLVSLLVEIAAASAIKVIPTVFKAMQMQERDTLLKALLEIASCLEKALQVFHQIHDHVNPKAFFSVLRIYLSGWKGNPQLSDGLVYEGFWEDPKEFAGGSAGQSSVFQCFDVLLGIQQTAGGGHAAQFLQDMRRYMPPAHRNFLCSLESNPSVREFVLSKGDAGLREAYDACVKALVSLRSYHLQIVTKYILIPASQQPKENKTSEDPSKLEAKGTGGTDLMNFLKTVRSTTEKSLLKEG

[3] = Cytotoxicity against human HeLa cells incubated for 48 hrs by CCK-8 assay; format: toxicity, cell-based
[4] = Cytotoxicity against mouse CT26 cells incubated for 48 hrs by CCK-8 assay; format: toxicity, cell-based
[5] = Cytotoxicity against human HCT-116 cells incubated for 48 hrs by CCK-8 assay; format: toxicity, cell-based
[6] = molecular target: T2, Indoleamine 2,3-dioxygenase 2 (Homo sapiens, UniProt Q6ZQW0); assay: Inhibition of IDO2 (unknown origin) using D-Trp as substrate incubated for 1 hr
T2 sequence (Q6ZQW0 whole entry): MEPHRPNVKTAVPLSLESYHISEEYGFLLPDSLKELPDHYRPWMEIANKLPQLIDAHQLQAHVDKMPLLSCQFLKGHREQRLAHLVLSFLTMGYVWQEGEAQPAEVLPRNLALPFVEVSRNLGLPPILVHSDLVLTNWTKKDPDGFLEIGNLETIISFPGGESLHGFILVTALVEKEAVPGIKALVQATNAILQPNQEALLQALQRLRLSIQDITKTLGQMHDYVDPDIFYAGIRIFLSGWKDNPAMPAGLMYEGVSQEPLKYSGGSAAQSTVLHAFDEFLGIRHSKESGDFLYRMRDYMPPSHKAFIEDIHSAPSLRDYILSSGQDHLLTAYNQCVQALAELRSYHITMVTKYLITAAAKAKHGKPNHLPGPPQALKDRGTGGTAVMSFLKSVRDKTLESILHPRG

[7] = Toxicity in athymic nude BALB/c mouse assessed as weight gain at 60 mg/kg, ig administered daily for 28 days and measured every 4 days; format: organism-based; conditions: in vivo, po, 672 h, time 28 day
[8] = molecular target: T3, Thioredoxin reductase 1, cytoplasmic (Homo sapiens) (UniProt Q16881); assay: Inhibition of TrxR1 in human HeLa cells incubated for 24 hrs; format: cell-based
T3 sequence (whole entry): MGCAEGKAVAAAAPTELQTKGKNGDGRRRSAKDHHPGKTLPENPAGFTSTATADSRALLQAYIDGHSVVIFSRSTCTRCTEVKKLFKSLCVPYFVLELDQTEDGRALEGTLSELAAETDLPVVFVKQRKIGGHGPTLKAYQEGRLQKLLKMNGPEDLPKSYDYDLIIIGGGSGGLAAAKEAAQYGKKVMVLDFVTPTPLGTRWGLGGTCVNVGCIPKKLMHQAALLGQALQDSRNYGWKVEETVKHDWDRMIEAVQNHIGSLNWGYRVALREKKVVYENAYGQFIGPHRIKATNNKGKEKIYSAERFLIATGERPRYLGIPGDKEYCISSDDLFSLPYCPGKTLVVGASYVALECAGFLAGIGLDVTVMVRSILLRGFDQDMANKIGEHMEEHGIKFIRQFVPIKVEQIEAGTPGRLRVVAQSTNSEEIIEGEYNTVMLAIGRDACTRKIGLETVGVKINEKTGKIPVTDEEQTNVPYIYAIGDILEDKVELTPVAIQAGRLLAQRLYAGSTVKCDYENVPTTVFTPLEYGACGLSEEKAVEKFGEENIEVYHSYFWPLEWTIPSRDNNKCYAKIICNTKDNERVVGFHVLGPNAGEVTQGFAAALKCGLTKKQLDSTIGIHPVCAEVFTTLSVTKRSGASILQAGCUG

[9] = molecular target: T3, Thioredoxin reductase 1, cytoplasmic (Homo sapiens); assay: Inhibition of TrxR1 in human HCT-116 cells incubated for 24 hrs; format: cell-based
[10] = molecular target: T4, Thioredoxin reductase 1, cytoplasmic (Mus musculus) (UniProt Q9JMH6); assay: Inhibition of TrxR1 in mouse CT26 cells incubated for 24 hrs; format: cell-based
T4 sequence (whole entry): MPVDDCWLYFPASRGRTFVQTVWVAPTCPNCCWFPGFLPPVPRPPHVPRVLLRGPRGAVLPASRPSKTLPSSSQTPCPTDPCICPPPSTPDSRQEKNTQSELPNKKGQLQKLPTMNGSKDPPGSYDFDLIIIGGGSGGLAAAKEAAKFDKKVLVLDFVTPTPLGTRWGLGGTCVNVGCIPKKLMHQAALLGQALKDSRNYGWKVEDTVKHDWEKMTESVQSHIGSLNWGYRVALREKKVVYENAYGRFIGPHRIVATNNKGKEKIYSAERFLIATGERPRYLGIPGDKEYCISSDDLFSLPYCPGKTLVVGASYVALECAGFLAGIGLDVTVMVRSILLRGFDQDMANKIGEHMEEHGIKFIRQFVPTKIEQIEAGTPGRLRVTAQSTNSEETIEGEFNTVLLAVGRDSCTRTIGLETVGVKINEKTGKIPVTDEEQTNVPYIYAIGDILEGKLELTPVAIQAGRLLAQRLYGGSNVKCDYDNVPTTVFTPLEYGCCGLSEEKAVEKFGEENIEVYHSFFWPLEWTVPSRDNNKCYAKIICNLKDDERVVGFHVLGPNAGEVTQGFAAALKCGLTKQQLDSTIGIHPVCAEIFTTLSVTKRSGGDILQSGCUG

[11] = molecular target: Indoleamine 2,3-dioxygenase 1 (Mus musculus) (UniProt P28776); assay: In vivo inhibition of IDO1 in C57BL/6 mouse assessed as reduction in plasma Kyn level at 60 mg/kg, po administered once daily by LC-MS/MS analysis; format: functional, organism-based
Chain of Indoleamine 2,3-dioxygenase 1 (Mus musculus) (P28776 whole entry, looked up): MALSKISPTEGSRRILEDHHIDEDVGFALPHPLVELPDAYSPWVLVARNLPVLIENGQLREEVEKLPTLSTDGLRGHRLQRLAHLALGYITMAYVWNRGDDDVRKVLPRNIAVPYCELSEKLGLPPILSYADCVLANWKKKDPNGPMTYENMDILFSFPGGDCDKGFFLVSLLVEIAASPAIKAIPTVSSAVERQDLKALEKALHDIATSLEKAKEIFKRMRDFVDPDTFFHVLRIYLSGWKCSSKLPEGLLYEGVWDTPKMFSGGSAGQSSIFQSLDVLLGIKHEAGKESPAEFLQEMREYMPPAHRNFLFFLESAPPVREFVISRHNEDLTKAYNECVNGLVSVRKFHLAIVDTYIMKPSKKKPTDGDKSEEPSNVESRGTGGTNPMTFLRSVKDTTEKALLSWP

[12] = molecular target: Indoleamine 2,3-dioxygenase 1 (Mus musculus) (UniProt P28776); assay: In vivo inhibition of IDO1 in C57BL/6 mouse assessed as increase in plasma Trp level at 60 mg/kg, po administered once daily by LC-MS/MS analysis; format: functional, organism-based
[13] = molecular target: Indoleamine 2,3-dioxygenase 1 (Mus musculus) (UniProt P28776); assay: In vivo inhibition of IDO1 in C57BL/6 mouse assessed as reduction in plasma Kyn/Trp ratio at 60 mg/kg, po administered once daily by LC-MS/MS analysis; format: functional, organism-based
CT26 [14] = assay: Antitumor activity against mouse CT26 cells implanted in […] BALB/c mouse assessed as increase in CD8 T lymphocytes at 60 mg/kg, ig administered daily for 28 days and measured every 4 days; format: functional, organism-based; conditions: time 28.0 day
CT26 [15] = assay: Antitumor activity against mouse CT26 cells implanted in […] BALB/c mouse assessed as increase in CD4 Th lymphocytes at 60 mg/kg, ig administered daily for 28 days and measured every 4 days; format: functional, organism-based; conditions: time 28.0 day
CT26 [16] = assay: Antitumor activity against mouse CT26 cells implanted in athymic nude BALB/c mouse assessed as reduction in CD4+CD25+Foxp3+ lymphocytes at 60 mg/kg, ig administered daily for 28 days and measured every 4 days by immunofluorescence analysis; format: functional, organism-based; conditions: time 28.0 day
CT26 [17] = assay: Antitumor activity against mouse CT26 cells implanted in […] BALB/c mouse assessed as reduction in nTreg lymphocytes at 60 mg/kg, ig administered daily for 28 days and measured every 4 days by immunofluorescence analysis; format: functional, organism-based; conditions: time 28.0 day
CT26 [18] = assay: Antitumor activity against mouse CT26 cells implanted in athymic nude BALB/c mouse assessed as reduction in proliferative nTreg lymphocytes at 60 mg/kg, ig administered daily for 28 days and measured every 4 days by immunofluorescence analysis; format: functional, organism-based; conditions: time 28.0 day

IC50 [1] [µM] | IC50 (HCT-116) [µM] | IC50 [2] [µM] | SMILES | other results
7.63 | 3.79 | 17.5 | O=C(Cc1cccc(OC(F)(F)F)c1)Nc1nnc(CCCNc2nonc2/C(=N\O)NCCc2ccc(Cl)cc2)s1 | –
6.46 | 4.65 | 7.88 | O=C(Cc1ccccc1)Nc1nnc(CCCNc2nonc2/C(=N\O)NCCc2ccc(Cl)cc2)s1 | –
1.96 | 4.42 | 10.3 | O=C(Cc1ccc(O)cc1)Nc1nnc(CCCNc2nonc2/C(=N\O)NCCc2ccc(Cl)cc2)s1 | –
18.3 | 4.62 | 10.1 | O=C(Cc1ccc(O)cc1)Nc1nnc(CCCNc2nonc2/C(=N\O)NCCc2ccc(Br)cc2)s1 | –
– | – | – | NS(=O)(=O)NCCNc1nonc1C(=NO)Nc1ccc(F)c(Br)c1 [EPACADOSTAT] | IC50 at 48 h [3]: 4.63 µM; IC50 at 48 h [4]: 1.49 µM; IC50 at 48 h [5]: 0.26 µM; IC50 [6]: 0.63 µM; Activity [7]: Toxic
25.2 | 5.59 | 13.2 | O=C(Cc1ccccc1)Nc1nnc(CCCNc2nonc2/C(=N\O)NCCc2ccc(F)cc2)s1 | –
– | – | – | NS(=O)(=O)NCCNc1nonc1/C(=N/O)Nc1ccc(F)c(Br)c1 | inhibition [8]: inactive; inhibition [9]: inactive; inhibition [10]: inactive; Activity [11]: Active; Activity [12]: Active; Activity [13]: Active; Activity (CT26 [14]): Active; Activity (CT26 [15]): Active; Activity (CT26 [16]): Active; Activity (CT26 [17]): Active; Activity (CT26 [18]): Active
13.5 | 5.31 | 4.37 | O=C(Cc1ccc(O)cc1)Nc1nnc(CCCNc2nonc2/C(=N\O)NCCc2ccc(F)cc2)s1 | –
3.69 | 5.25 | 0.12 | O=C(Cc1cccc(OC(F)(F)F)c1)Nc1nnc(CCCNc2nonc2/C(=N\O)Nc2ccc(F)c(Br)c2)s1 | –
10.5 | 3.1 | 5.58 | O=C(Cc1cccc(OC(F)(F)F)c1)Nc1nnc(CCCNc2nonc2/C(=N\O)NCCc2ccc(Br)cc2)s1 | –
3.74 | 5.98 | 0.06 | O=C(Cc1ccccc1)Nc1nnc(CCCNc2nonc2/C(=N\O)Nc2ccc(F)c(Br)c2)s1 | –
